# US8883785B2, “Certain kynurenine-3-monooxygenase inhibitors, pharmaceutical compositions, and methods of use thereof” (CHDI Foundation, Inc., priority 2010, dated 2014)
# Biological target: T1, KMO mouse enzyme (Mus musculus, UniProt Q91WN4)
# T1 construct: KMO enzyme prepared at Evotec from mouse liver (4-6 weeks old) via mitochondria isolation; from tissue; host or cells: mouse liver (4-6 weeks old), mitochondria isolation
# Assay: Mouse KMO enzyme assay: L-kynurenine hydroxylation to 3OH-KYN by LC/MS
# Type: biochemical
# Settings: compound at 10 μM; KMO from mouse liver mitochondria; read-out: INH.Mouse @ 10 μM
# Description: Product is quantified by multiple reaction monitoring (MRM method).
# IC50's are calculated using automated fitting algorithm (A+Analysis).
# T1 sequence (Q91WN4 whole entry): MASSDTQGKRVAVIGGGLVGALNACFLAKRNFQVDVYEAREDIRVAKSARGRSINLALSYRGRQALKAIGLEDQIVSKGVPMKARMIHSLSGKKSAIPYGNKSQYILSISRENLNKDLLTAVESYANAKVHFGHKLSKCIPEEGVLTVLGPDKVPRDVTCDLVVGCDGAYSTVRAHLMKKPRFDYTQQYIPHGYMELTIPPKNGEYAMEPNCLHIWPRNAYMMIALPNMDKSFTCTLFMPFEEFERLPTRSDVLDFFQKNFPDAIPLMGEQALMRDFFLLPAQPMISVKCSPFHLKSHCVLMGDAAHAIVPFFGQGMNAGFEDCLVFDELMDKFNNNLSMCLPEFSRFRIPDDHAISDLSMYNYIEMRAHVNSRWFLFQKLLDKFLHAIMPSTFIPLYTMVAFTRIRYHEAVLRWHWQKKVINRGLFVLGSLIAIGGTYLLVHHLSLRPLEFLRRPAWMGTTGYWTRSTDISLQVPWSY
row,Compound,inhibition at 10 µM [%]
1,"FC(F)(F)c1cn(-c2cc(-c3ccc(Cl)c(Cl)c3)ncn2)cn1 [4-(3,4-dichlorophenyl)-6-[4-(trifluoromethyl)imidazol-1-yl]pyrimidine]",64.4
2,"Cc1nnc(-c2cc(-c3ccc(Cl)c(Cl)c3)ncn2)[nH]1 [4-(3,4-dichlorophenyl)-6-(5-methyl-4H-1,2,4-triazol-3-yl)pyrimidine]",80
3,"Cc1c[nH]c(-c2cc(-c3ccc(Cl)c(Cl)c3)ncn2)n1 [4-(3,4-dichlorophenyl)-6-(4-methyl-1H-imidazol-2-yl)pyrimidine]",92.3
4,"Clc1ccc(-c2cc(-c3ncco3)ncn2)cc1Cl [4-(3,4-Dichloro-phenyl)-6-oxazol-2-yl-pyrimidine]",93
5,"O=c1[nH]nc(-c2cc(-c3ccc(Cl)c(Cl)c3)ncn2)[nH]1 [5-[6-(3,4-dichlorophenyl)pyrimidin-4-yl]-2,4-dihydro-1,2,4-triazol-3-one]",58.1
6,CC(C)Oc1ccc(-c2cc(-c3nnn[nH]3)ncn2)cc1Cl [4-(3-Chloro-4-isopropoxy-phenyl)-6-(1H-tetrazol-5-yl)-pyrimidine],100
7,"S=c1[nH]c(-c2cc(-c3ccc(Cl)c(Cl)c3)ncn2)no1 [3-[6-(3,4-dichlorophenyl)pyrimidin-4-yl]-4H-1,2,4-oxadiazole-5-thione]",102
8,Cn1nnnc1-c1cc(-c2cccc(Cl)c2)ncn1 [4-(3-chlorophenyl)-6-(1-methyltetrazol-5-yl)pyrimidine],65.6
9,"O=c1[nH]c(-c2cc(-c3cccc(Cl)c3)ncn2)no1 [3-[6-(3-chlorophenyl)pyrimidin-4-yl]-4H-1,2,4-oxadiazol-5-one]",96.3
10,"O=c1[nH]c(-c2cc(-c3ccc(OC(F)(F)F)c(Cl)c3)ncn2)no1 [3-[6-(3-Chloro-4-trifluoromethoxy-phenyl)-pyrimidin-4-yl]-4H-[1,2,4]oxadiazol-5-one]",99
11,"Clc1ccc(-c2cc(-c3cc[nH]n3)ncn2)cc1Cl [4-(3,4-Dichloro-phenyl)-6-(1H-pyrazol-3-yl)-pyrimidine]",19
12,"Cc1ccc(-c2cc(-c3noc(=O)[nH]3)ncn2)cc1F [3-[6-(3-Fluoro-4-methyl-phenyl)-pyrimidin-4-yl]-4H-[1,2,4]oxadiazol-5-one]",100
13,Clc1cccc(-c2cc(-c3nc4ccccc4[nH]3)ncn2)c1 [2-[6-(3-chlorophenyl)pyrimidin-4-yl]-1H-benzimidazole],102
14,"O=c1[nH]c(-c2cc(-c3ccc(F)c(Cl)c3)ncn2)no1 [3-[6-(3-Chloro-4-fluoro-phenyl)-pyrimidin-4-yl]-4H-[1,2,4]oxadiazol-5-one]",100
15,Fc1ccc(-c2cc(-c3nnn[nH]3)ncn2)cc1Cl [4-(3-chloro-4-fluorophenyl)-6-(1H-tetrazol-5-yl)pyrimidine],103
16,Clc1cccc(-c2cc(-c3nnn[nH]3)ncn2)c1 [4-(3-chlorophenyl)-6-(1H-tetrazol-5-yl)pyrimidine],103
17,"O=c1[nH]c(-c2cc(-c3ccc(F)c(F)c3)ncn2)no1 [3-[6-(3,4-Difluoro-phenyl)-pyrimidin-4-yl]-4H-[1,2,4]oxadiazol-5-one]",100
18,"Cc1nc(-c2cc(-c3ccc(Cl)c(Cl)c3)ncn2)no1 [4-(3,4-dichlorophenyl)-6-(5-methyl-1,2,4-oxadiazol-3-yl)pyrimidine]",51
19,"Clc1ccc(-c2cc(-c3nccs3)ncn2)cc1Cl [4-(3,4-Dichloro-phenyl)-6-thiazol-2-yl-pyrimidine]",48
20,"Clc1cccc(-c2cc(-c3nc4ccccc4o3)ncn2)c1 [2-[6-(3-chlorophenyl)pyrimidin-4-yl]-1,3-benzoxazole]",54.4
21,"Clc1ccc(-c2cc(C3=NCCN3)ncn2)cc1Cl [4-(3,4-dichlorophenyl)-6-(4,5-dihydro-1H-imidazol-2-yl)pyrimidine]",95.5

row,Compound,inhibition at 10 µM [%]
1,"Clc1ccc(-c2cc(-c3nnc[nH]3)ncn2)cc1Cl [4-(3,4-dichlorophenyl)-6-(4H-1,2,4-triazol-3-yl)pyrimidine]",100
2,"FC(F)(F)c1ccn(-c2cc(-c3ccc(Cl)c(Cl)c3)ncn2)n1 [4-(3,4-dichlorophenyl)-6-[3-(trifluoromethyl)pyrazol-1-yl]pyrimidine]",56.7
3,"Cc1coc(-c2cc(-c3ccc(Cl)c(Cl)c3)nc(C)n2)n1 [4-(3,4-dichlorophenyl)-2-methyl-6-(4-methyl-1,3-oxazol-2-yl)pyrimidine]",46.8
4,"O=c1[nH]cc(-c2cc(-c3ccc(Cl)c(Cl)c3)ncn2)[nH]1 [4-[6-(3,4-dichlorophenyl)pyrimidin-4-yl]-1,3-dihydroimidazol-2-one]",105
5,"Fc1ccc(-c2cc(-c3nnn[nH]3)ncn2)cc1F [4-(3,4-difluorophenyl)-6-(1H-tetrazol-5-yl)pyrimidine]",101
6,"Clc1ccc(-c2cc(-c3ncc[nH]3)ncn2)cc1Cl [4-(3,4-dichlorophenyl)-6-(1H-imidazol-2-yl)pyrimidine]",99
7,"Clc1cccc(-c2cc(-c3nnc[nH]3)ncn2)c1 [4-(3-chlorophenyl)-6-(4H-1,2,4-triazol-3-yl)pyrimidine]",102
8,"Cn1[nH]cc(-c2cc(-c3ccc(Cl)c(Cl)c3)ncn2)c1=O [4-[6-(3,4-dichlorophenyl)pyrimidin-4-yl]-2-methyl-1H-pyrazol-3-one]",73.6
9,"O=c1[nH]c(-c2cc(-c3cncc(Cl)c3)ncn2)no1 [3-[6-(5-chloropyridin-3-yl)pyrimidin-4-yl]-4H-1,2,4-oxadiazol-5-one]",65.2
10,"Cc1coc(-c2cc(-c3cccc(Cl)c3)ncn2)n1 [4-(3-chlorophenyl)-6-(4-methyl-1,3-oxazol-2-yl)pyrimidine]",101
11,"Cc1coc(-c2cc(-c3ccc(Cl)c(Cl)c3)ncn2)n1 [4-(3,4-dichlorophenyl)-6-(4-methyl-1,3-oxazol-2-yl)pyrimidine]",101
12,Cc1ccc(-c2cc(-c3nnn[nH]3)ncn2)cc1F [4-(3-Fluoro-4-methyl-phenyl)-6-(1H-tetrazol-5-yl)-pyrimidine],100
13,FC(F)(F)Oc1ccc(-c2cc(-c3nnn[nH]3)ncn2)cc1Cl [4-(3-Chloro-4-trifluoromethoxy-phenyl)-6-(1H-tetrazol-5-yl)-pyrimidine],100
14,"Clc1ccc(-c2cc(-c3nc4ccccc4[nH]3)ncn2)cc1Cl [2-[6-(3,4-dichlorophenyl)pyrimidin-4-yl]-1H-benzimidazole]",49.7
15,"CNC(=O)c1ccc(-c2cc(-c3ccc(Cl)c(Cl)c3)ncn2)nc1 [6-[6-(3,4-dichlorophenyl)pyrimidin-4-yl]-N-methylpyridine-3-carboxamide]",39.1
16,Clc1cccc(-c2cc(-c3nc4ccc(Cl)cc4[nH]3)ncn2)c1 [6-chloro-2-[6-(3-chlorophenyl)pyrimidin-4-yl]-1H-benzimidazole],39.1
17,"Cc1noc(-c2cc(-c3cccc(Cl)c3)ncn2)n1 [4-(3-chlorophenyl)-6-(3-methyl-1,2,4-oxadiazol-5-yl)pyrimidine]",91
18,Cn1nnc(-c2cc(-c3cccc(Cl)c3)ncn2)n1 [4-(3-chlorophenyl)-6-(2-methyltetrazol-5-yl)pyrimidine],91.2
19,"FC(F)(F)c1nc(-c2cc(-c3ccc(Cl)c(Cl)c3)ncn2)no1 [4-(3,4-dichlorophenyl)-6-[5-(trifluoromethyl)-1,2,4-oxadiazol-3-yl]pyrimidine]",87
20,"CC(C)Oc1ccc(-c2cc(-c3noc(=O)[nH]3)ncn2)cc1Cl [3-[6-(3-Chloro-4-isopropoxy-phenyl)-pyrimidin-4-yl]-4H-[1,2,4]oxadiazol-5-one]",96
21,"Cc1ccc(-c2cc(-c3noc(=O)[nH]3)ncn2)cc1Cl [3-[6-(3-Chloro-4-methyl-phenyl)-pyrimidin-4-yl]-4H-[1,2,4]oxadiazol-5-one]",98

# Test system: not listed separately
# Assay: Solubility remark made when LCMS was attempted
# Type: physicochemical
# Settings: solvents for LCMS
row,Compound,solubility
1,"O=c1[nH]nc(-c2cc(-c3ccc(Cl)c(Cl)c3)ncn2)[nH]1 [5-[6-(3,4-dichlorophenyl)pyrimidin-4-yl]-2,4-dihydro-1,2,4-triazol-3-one]","very unsoluble compound- LCMS unobtainable 1H NMR (250 MHz, DMSO-d6) d ppm 9.27-9.32 (1 H, m), 8.39- 8.47 (2 H, m), 8.17-8.25 (1 H, m), 7.76-7.85 (1 H, m)"
2,"Cn1[nH]cc(-c2cc(-c3ccc(Cl)c(Cl)c3)ncn2)c1=O [4-[6-(3,4-dichlorophenyl)pyrimidin-4-yl]-2-methyl-1H-pyrazol-3-one]","Compound is insuffciently souble in any acceptable solvent in order to obtain a meaningful LCMS 1H NMR (500 MHz, DMSO-d6) d ppm 8.88 (1H, s), 8.44 (1H, br.s.), 8.26 (1H, br.s.), 8.19 (1H, d), 8.06 (1H, br.s.), 7.85 (1H, d), 3.45 (3H, s)"
